According to patent US20250186503A1, “METHODS AND COMBINATIONS FOR TREATMENT AND T CELL MODULATION” (Juno Therapeutics, Inc., priority 2018, published 2025):

Assays:
[1] = biological target: T1, Ikaros (Homo sapiens, UniProt Q13422+Q96SW2); assay: Intracellular Ikaros expression (flow cytometry MFI) in anti-CD19 CAR-expressing T cells after overnight incubation; assay type: cell-based
T1 construct: intracellular levels of Ikaros in CD4+ CAR+ or CD8+ CAR+ cells; endogenous in cells; host or cells: primary human CD4+ and CD8+ T cells transduced with an anti-CD19 CAR (FMC63 scFv)
Procedure: Transduced populations then were separately incubated in the presence of stimulating reagents for cell expansion.

[2] = system: Granta-519 tumor spheroids; assay: Granta-519 spheroid tumor growth assay, rescue treatment after chronic stimulation; assay type: cell-based, human
Procedure: Long-term, chronic stimulation was carried out by stimulation of CAR T cells with 30 μg/mL plate-bound anti-idiotypic (anti-ID) antibody for 6 days, substantially as described in Example 22.
Cells were assessed at various time points for cytolytic function and cytokine function. […] Averaged measurement of tumor spheroid size at Day 9 following co-culture with CAR-T cells was assessed. […] The log 2 fold change compared to control cells (chronically stimulated cells that had not been treated with immunomodulatory compound) is shown in FIG. 49C.

[3] = system: RPMI-8226; assay: Serial restimulation with BCMA-conjugated beads, cytolytic activity against RPMI-8226; assay type: cell-based, human; settings: 5 μM
Procedure: Cells from each condition were plated in triplicate. The % cell killing compared to vehicle only control (set at 100%) was determined.

[4] = system: anti-BCMA CAR T cells; assay: Proliferation and expansion of anti-BCMA CAR T cells stimulated with BCMA-conjugated beads; assay type: cell-based, human; settings: 5 μM
Procedure: To further assess proliferation, the cells containing anti-BCMA CAR-expressing T cells were labeled with the proliferation marker dye CELLTRACE VIOLET (CTV; ThermoFisher Scientific, Waltham MA) in accordance with the manufacturer's protocol prior to incubation with the BCMA-conjugated beads. Proliferation was assessed by dye dilution using flow cytometry on cells that were stimulated with beads from the 50 μg/mL BCMA-conjugated bead composition.
Four days and seven days after addition of BCMA-conjugated beads, the incubated cells were stained with CD4 or CD8 and with an anti-EGFR antibody to determine the percentage of cells positive for EGFRt as a surrogate for CAR+ T cells.

[5] = system: anti-CD19 CAR+ T cells; assay: CD25 and PD-1 surface expression on anti-CD19 CAR+ T cells incubated with K562-CD19 cells; assay type: cell-based, human
Procedure: After 120 hours of culture, cells were isolated and assessed by flow cytometry for surface expression of CD25 or PD-1 in CD4+ or CD8+ T cell subsets.

[6] = system: anti-BCMA CAR+ T cells; assay: T cell markers on anti-BCMA CAR+ T cells stimulated with BCMA-conjugated beads; assay type: cell-based, human
Procedure: Approximately 1.5×10^6 CAR+ T cells were added to wells of a 12-well plate and were incubated with beads from a 200 μg/ml BCMA-conjugated bead composition at a ratio of CAR+ T cell to BCMA-conjugated bead of 1:0.3, 1:1 or 1:3 (approximately 0.5×10^6, 1.5, 10^6, and 4.5×10^6 beads per well, respectively). As controls, 5 μg/mL anti-CD3 antibody was coated to wells (sub-optimal concentration for stimulation) or cells were seeded in the absence of any agent (no stimulation control). […] The cells were incubated for four days and then analyzed by flow cytometry for surface expression of CD4, CD8, Tim3, PD-1, CD25 and CD69.
In a further experiment, anti-BCMA CAR-T cell compositions produced substantially as described in Example 1 were plated in 96-well plates at a density of 5×10^5 cells per well. The tested CAR-T cell compositions contained, on average, approximately 45% anti-BCMA CAR+ cells at plating. Cells from each composition were incubated for 18 hours in the presence of beads from a 5 μg/ml, 50 μg/ml, or 200 μg/ml BCMA-conjugated bead composition at a ratio of 1:1 T cells to beads. As a control, cells were incubated with anti-CD3/anti-CD28 antibody-conjugated beads (positive control) or no added agent (negative control). […] Following the incubation, the cells were treated with reagents that allowed for extracellular and intracellular antibody staining by flow cytometry for the transcription factors Blimp1, EOMES, GATA-3, ikaros, helios, and Tbet and markers CD25, CD31, and PD-1.

[7] = system: anti-CD19 CAR+ T cells; assay: Expansion of anti-CD19 CAR+ T cells following serial restimulation with irradiated K562-CD19 cells; assay type: cell-based, human; settings: 1 μM, 4 rounds of stimulation, 12 days, two donors
Procedure: The ability of anti-CD19 CAR+ T cells to expand ex vivo following repeated stimulations was assessed using methods substantially as described in Example 2. […] For each donor, cells were harvested every 3-5 days from each experimental condition in the wells and counted, and restimulated with new target cells using the same culture conditions after resetting cell number to initial seeding density for each round. A total of 4 rounds of stimulation during a 12 day culture period were carried out. For each round of stimulation, the total number of cells was determined, and the results were depicted as the fold-change of cell number after stimulation (FIG. 17A) or number of doublings compared to initial number (FIG. 17B).

[8] = system: OPM-2; assay: OPM-2 human multiple myeloma orthotopic mouse model, Study 1; assay type: in vivo
Procedure: Mice (NOD.Cg-Prkd^scidIL-2rg^tm1Wjl/SzJ mice (NSG; Jackson Labs)) were injected intravenously (i.v.) with 2×10^6 OPM2 (multiple myeloma) cells transfected with firefly luciferase (OPM2-ffluc). Tumor engraftment was allowed to occur for 13 days prior to staging (14 days before CAR-T cell administration) and verified using bioluminescence imaging.
In groups receiving CAR+ T cells, anti-BCMA CAR (generated by transducing cells derived from samples of human donor subjects essentially as described above) were administered at day 0 (day 14 after tumor cell injection), at a dose of either 5×10^5 (low) or 1×10^6 (high) CAR-expressing T cells. Table E1 summarizes the dosing regimens.
Tumor burden in animals among the various groups was monitored by bioluminescence imaging up to day 39 post-CAR+ T cell dosing. For bioluminescence imaging, mice received intraperitoneal (i.p.) injections of luciferin substrate (CaliperLife Sciences, Hopkinton, MA) resuspended in PBS (15 μg/g body weight). The total flux (photon/s) was determined at each time point.
Table E2 lists median survival (ms) (as assessed at day 56 post-CAR+ T cell administration) and number of mice in group surviving until day 56-post-CAR+ T cell administration, for each animal group assessed in this study.

T1 sequence (Q13422 whole entry): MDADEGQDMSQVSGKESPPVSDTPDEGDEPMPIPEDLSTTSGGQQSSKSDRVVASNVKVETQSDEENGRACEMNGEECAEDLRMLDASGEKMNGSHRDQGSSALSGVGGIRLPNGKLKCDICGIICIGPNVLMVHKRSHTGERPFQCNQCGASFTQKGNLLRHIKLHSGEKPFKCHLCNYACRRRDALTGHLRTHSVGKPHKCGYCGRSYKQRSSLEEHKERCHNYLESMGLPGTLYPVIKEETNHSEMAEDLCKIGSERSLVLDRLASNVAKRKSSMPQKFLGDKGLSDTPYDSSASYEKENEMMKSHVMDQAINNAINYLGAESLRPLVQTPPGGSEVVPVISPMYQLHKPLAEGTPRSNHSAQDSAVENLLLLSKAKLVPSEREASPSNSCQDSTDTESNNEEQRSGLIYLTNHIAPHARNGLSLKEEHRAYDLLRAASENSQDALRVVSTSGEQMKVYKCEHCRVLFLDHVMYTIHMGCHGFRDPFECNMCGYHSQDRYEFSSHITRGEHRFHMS
T1 sequence (Q96SW2 whole entry): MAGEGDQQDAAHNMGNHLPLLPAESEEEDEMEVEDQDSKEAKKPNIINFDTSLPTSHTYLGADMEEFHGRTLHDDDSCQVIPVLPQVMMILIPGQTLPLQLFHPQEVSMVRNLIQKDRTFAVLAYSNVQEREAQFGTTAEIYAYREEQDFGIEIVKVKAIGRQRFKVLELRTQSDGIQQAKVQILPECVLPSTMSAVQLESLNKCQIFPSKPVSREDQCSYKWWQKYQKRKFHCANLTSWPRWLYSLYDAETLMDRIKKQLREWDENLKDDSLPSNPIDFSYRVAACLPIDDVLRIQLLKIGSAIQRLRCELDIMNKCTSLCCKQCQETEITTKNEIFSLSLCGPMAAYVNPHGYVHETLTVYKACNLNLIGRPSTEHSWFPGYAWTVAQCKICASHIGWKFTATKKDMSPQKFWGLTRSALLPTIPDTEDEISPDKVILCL
T1 sequence (Q16531 whole entry partner): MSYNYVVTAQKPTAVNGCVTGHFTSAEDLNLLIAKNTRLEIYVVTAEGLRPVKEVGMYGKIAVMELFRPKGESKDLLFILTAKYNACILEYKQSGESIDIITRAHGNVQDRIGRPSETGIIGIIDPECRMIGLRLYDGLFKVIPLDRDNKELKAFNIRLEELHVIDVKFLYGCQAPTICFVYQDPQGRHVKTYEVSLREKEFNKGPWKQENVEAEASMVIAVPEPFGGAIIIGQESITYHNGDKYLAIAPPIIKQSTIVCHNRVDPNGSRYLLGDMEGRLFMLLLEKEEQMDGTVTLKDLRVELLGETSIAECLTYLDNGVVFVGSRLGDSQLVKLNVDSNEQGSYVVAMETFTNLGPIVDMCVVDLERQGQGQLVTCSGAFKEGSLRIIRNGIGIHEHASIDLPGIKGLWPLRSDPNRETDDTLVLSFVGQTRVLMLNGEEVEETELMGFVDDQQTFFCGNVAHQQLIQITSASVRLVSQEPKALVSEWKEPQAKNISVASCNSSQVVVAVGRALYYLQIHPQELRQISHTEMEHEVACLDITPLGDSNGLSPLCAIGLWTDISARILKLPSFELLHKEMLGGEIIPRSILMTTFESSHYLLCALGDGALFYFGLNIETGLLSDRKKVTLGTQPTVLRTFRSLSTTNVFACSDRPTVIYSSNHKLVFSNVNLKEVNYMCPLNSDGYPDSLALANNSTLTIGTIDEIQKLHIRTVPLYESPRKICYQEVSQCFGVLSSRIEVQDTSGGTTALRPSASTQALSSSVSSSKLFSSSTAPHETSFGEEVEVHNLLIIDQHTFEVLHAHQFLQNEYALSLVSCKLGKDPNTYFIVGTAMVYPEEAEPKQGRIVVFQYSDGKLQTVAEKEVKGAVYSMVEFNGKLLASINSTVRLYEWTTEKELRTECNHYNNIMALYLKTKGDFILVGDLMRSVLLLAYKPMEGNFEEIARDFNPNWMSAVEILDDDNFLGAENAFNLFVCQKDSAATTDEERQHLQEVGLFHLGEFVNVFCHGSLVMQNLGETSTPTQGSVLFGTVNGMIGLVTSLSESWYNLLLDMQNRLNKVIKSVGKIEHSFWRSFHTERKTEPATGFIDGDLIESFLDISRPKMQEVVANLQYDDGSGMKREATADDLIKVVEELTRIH

**Q.** Cc1nc2cccc(N)c2c(=O)n1C1CCC(=O)NC1=O (centres unmarked) [Compound 1, 3-(5-amino-2-methyl-4-oxo-4H-quinazolin-3-yl)-piperidine-2,6-dione] was tested. Which “reduction in Ikaros expression compared to lenalidomide” value [1] did it give?
**A.** greater reduction

**Q.** And the “intracellular Ikaros expression” value ([1]; CD4+ and CD8+ anti-CD19 CAR-expressing T cells)?
**A.** concentration-dependent decrease

**Q.** How did the Granta-519 spheroid growth ([2]; 0.001 μM or 0.01 μM rescue, Day 9) turn out when O=C1CC[C@H](N2Cc3c(OCc4ccc(CN5CCOCC5)cc4)cccc3C2=O)C(=O)N1 [Compound 2, (S)-3-[4-(4-morpholin-4-ylmethyl-benzyloxy)-1-oxo-1,3-dihydro-isoindol-2-yl]-piperidine-2,6-dione] was run?
**A.** improved CAR T cell cytolytic

**Q.** And the IFNγ in supernatant ([2]; 5 days co-culture, rescue treatment)?
**A.** statistically significant increase

**Q.** What about the “improvement in cytolytic function compared with Compound 1” value ([2]; rescue treatment) of the same molecule?
**A.** greater following rescue treatment with Compound 2 than Compound 1

**Q.** Which results are given for Nc1cccc2c1CN(C1CCC(=O)NC1=O)C2=O (centres unmarked) [lenalidomide, 3-(4-amino-1-oxo-1,3-dihydro-2H-isoindol-2-yl)piperidine-2,6-dione]?
**A.** killing efficacy of anti-BCMA CAR+ T cells ([3]; further donor (FIG. 23B), all time points): increased killing efficacy; cytolytic activity of anti-BCMA CAR+ T cells ([3]; preincubated 7 days or 14 days, exemplary donor): greater cytolytic activity; extent of CAR+ T cell expansion (EGFRt+) [4]: did not substantially impact; total cell count at day 7 ([4]; 50 μg beads): small increase in proliferation; CD25 expression in CD4+ and CD8+ T cells ([5]; 1600 nM, E:T 2.5:1, 120 hours): higher levels; surface expression of PD-1 in CD4+ or CD8+ T cells ([5]; up to 1600 nM, 120 hours): No difference; expression level of Ikaros ([6]; 0.5 μM or 5 μM, 18 hours, all conditions): decreased; proliferative capacity of T cells (CTV dye) ([6]; 5 μM, 200 μg BCMA beads 1:1, three days): increased; surface expression of CD25 in CD4+ and CD8+ T cells ([6]; BCMA-conjugated beads or anti-CD3 stimulation): further increased; cell expansion of anti-CD19 CAR+ T cells [7]: no change or only a minor effect; tumor growth or tumor burden, lenalidomide alone ([8]; 10 mg/kg i.p. daily, no CAR-T cells): not observed to reduce tumor growth or tumor burden; # animals surviving day 56 post-CART ([8]; cell dose 1.00E+06 (hi) or 5.00E+05 (low), lenalidomide 10 mg/kg i.p. daily from day −1 (A) or day 14 (B)): 0/8; Median Survival (assessed at day 6) ([8]; cell dose 1.00E+06 (hi) or 5.00E+05 (low), lenalidomide 10 mg/kg i.p. daily from day −1 (A) or day 14 (B), listed as lenalidomide (A)): 28; Median Survival (assessed at day 6) ([8]; cell dose 1.00E+06 (hi) or 5.00E+05 (low), lenalidomide 10 mg/kg i.p. daily from day −1 (A) or day 14 (B), listed as lenalidomide (B)): 25; survival effects in mice treated with anti-BCMA CAR+ T cells ([8]; high and low CAR doses, lenalidomide at day −1 (A) or delayed d.14 (B)): improved survival effects; day post-CAR-T cell injection from which clear differences were observed ([8]; higher (1×10^6) dose of CAR+ T cells, lenalidomide B): 30 to 40 days; tumor growth and tumor burden in mice administered CAR+ T cells ([8]; lenalidomide 10 mg/kg i.p. daily from day −1 (A), both CAR+ T cell doses): slower tumor growth and reduced tumor burden; tumor growth and tumor burden in mice administered CAR-T cells ([8]; lenalidomide from day 14 post-CAR+ T (B), both doses of CAR-T cells): trend towards slower tumor growth and reduced tumor burden
